Measured values: US7094789B2, “5-substituted isoquinoline derivatives” (Asahi Kasei Pharma Corporation, priority 2002, dated 2006)
Counter-ions that a name gives are not always drawn.

Key:
[1] = tested on: ovalbumin-induced constriction of respiratory tract; assay: Respiratory tract constriction suppression action (Test Example 3); type: in vivo, Hartley guinea pigs; conditions: ovalbumin-immunized guinea pigs; test medicament via hind leg vein; 15 minutes after administration
Procedure: Four-week old Hartley guinea pigs (male) were immunized by intraperitoneal administration of ovalbumin (Sigma, Grade V) in amounts of 1 mg for each animal on the day on which the experiment was started, 3 mg for each animal after 2 days, and 10 mg for each animal after 4 days. Twelve to fourteen days after the final immunization, the ovalbumin-immunized guinea pigs were anesthetized by intraperitoneal administration of about 40 mg/kg of pentobarbital (Somnopentyl), and the tracheas were taken out. Subsequently, a cannula (SP-110, Natsume) was inserted into each trachea, and one end of the cannula was connected to an artificial respirator (Model-b83, Harvard). The aeration conditions were set at 6 ml per kilogram and 60 times per 1 minute. Further, a cannula for medicament administration (JMS wing needle 23G 3/4) was inserted into a hind leg vein. Myoblock (Organon Technica) was administered in an amount of 0.5 mg/kg from the cannula inserted into the hind leg vein to stop the spontaneous breathing, and after 2 or 3 minutes, 0.3 mg/kg of ovalbumin was administered to induce constriction of respiratory tract. The increase of airway resistance value 2 minutes after the induction (measurement apparatuses: pressure transducer TR-603T, respiratory amplifier AR-601G, and recorder RTA-3100, Nihon Kohden Corp.) was confirmed to be above 80 cm H2O or higher, and then, a solution of a test medicament was administered from the cannula inserted into the hind leg vein, and the airway resistance value was continuously measured for 15 minutes after the administration to determine the effect.

[2] = tested on: thoracic aorta constricted with phenylephrine; assay: Vasoconstriction inhibitory action (Test Example 2); design: species or system Rats (Wistar); conditions: result in words; rat thoracic aorta, phenylephrine
Description: Rats (Wistar, 11-week old) were bleeded to death and laparotomized to take out the thoracic aorta. That aorta was cut into a ring of a length of about 3 mm in a conventional manner (Asano, T., et al., J. Pharmacol. Exp. Ther., 241, pp. 1033–1040 (1987)) and hung in 10-ml organ bath filled with Krebs-Hensright nutrient solution bubbled with a mixed gas of 95% O2 and 5% CO2. One end of the blood vessel was connected to an isometric transducer (FD Pickup TB-912T, Nihon Kohden) and applied with 2.5 g of resting tension, and constriction and relaxation reactions of the aorta were recorded. The aorta was constricted with phenylephrine (1 μM, Sigma) and then added with a test compound (1 μM), and the vasoconstriction inhibitory action thereof was observed. The vasoconstriction inhibitory actions of the test compounds are shown in Table 6 mentioned below as the relaxation ratios, which are based on the vasoconstriction with phenylephrine immediately before the addition of the test compound taken as 100%.

[3] = target: T1, myosin light chain phosphorylation enzyme (MLCK) (Gallus gallus, UniProt P11799); assay: Action on myosin light chain phosphorylation enzyme (MLCK) activity; type: biochemical, chicken; conditions: for IC50: MLCK from chicken gizzard smooth muscle, ELISA, 100 μM ATP, read-out: Myosin light chain phosphorylation enzyme inhibitory action IC50; for inhibition of MLCK: result in words
T1 construct: purified from chicken gizzard smooth muscle by a conventional method; from tissue; host or cells: chicken gizzard smooth muscle
Procedure: A myosin light chain phosphorylation enzyme (MLCK) was purified from chicken gizzard smooth muscle by a conventional method (Yoshida, M., et al., J. Biochem., 99, 1027–1036 (1986)). The myosin regulatory light chain as a substrate was purified from the chicken gizzard smooth muscle by a conventional method (Grand, R. J., et al., Biochem. J., 211, 267–272 (1983)). The MLCK activity was measured by ELISA using pLC1 described in Test Example 1 (Sakurada, K., et al., J. Biochem., 115, 18–21 (1994)). The myosin regulatory light chain was diluted in phosphate-buffered saline (PBS, Sigma) to a concentration of 5.0 µg/ml, added to 96-well Immunoplate (Nunc) in a volume of 100 μl per well and left stand overnight at 4° C. Each well was washed with PBS, and 25 mM Tris/HCl buffer containing 100 μM ATP, 3 mM MgCl2, 1 mM CaCl2, 100 ng/ml of calmodulin (Sigma) and 100 ng/ml of MLCK (pH 7.4, Buffer A) was added to each well and incubated at 30° C. for 10 minutes. In a volume of 100 μl each of 20% aqueous phosphoric acid solution was added to each well to terminate the enzymatic reaction. Each well was washed with 25 mM Tris/HCl buffer (TTBS) containing 0.1% Tween 20, and then 100 μl each of pLC1 described in Test Example 1 was added to each well and incubated at room temperature for 90 minutes.
Each well was washed with TTBS, and then 100 μl of the HRP-labeled rabbit anti-mouse IgG antibodies (Bio-Rad) were added to each well and incubated at room temperature for 90 minutes. Each well was washed with TTBS, and then 25 mM citrate buffer (pH 5.0) containing orthophenylenediamine (Sigma) as a substrate of HRP and aqueous hydrogen peroxide (0.03%) was added in a volume of 100 μl per well and incubated at room temperature for 5 minutes. 50 μl of 4 N sulfuric acid was added to each well to terminate the reaction, and then absorbance was measured by using an immunoplate reader (Bio-Rad).

intraocular pressure = assay: Intraocular pressure reducing action (Test Example 4); type: in vivo, Japanese white rabbit; conditions: for inhibition in vivo at 1 %, 50 µL: Oryctolagus cuniculus, topical, 1% aqueous solution, 50 μl dropped to the left eye, after 2 hours, read-out: Intraocular pressure reducing action (reduction ratio) (%); for intraocular pressure reducing activity: result in words, rabbit
Procedure: A Japanese white rabbit having a body weight of about 2 kg was placed in a positioner and naturalized for one week before the experiment. An ophthalmologic local anesthesant (Benoxil) was administered to the left eye, and then intraocular pressure was measured by using a tonometer (Classic 30, Solan). The initial value of the intraocular pressure was measured, then 50 μl of a test compound (1% aqueous solution) was dropped to the left eye, and after 2 hours, the intraocular pressure was measured. The intraocular pressure reducing action of the test compounds is shown in Table 7 mentioned below as ratios (%) of reduction of intraocular pressure based on the initial value of the intraocular pressure.

[4] = tested on: OVA-induced respiratory tract inflammation; assay: Respiratory tract inflammation suppressing action (Test Example 6); type: in vivo, BALB/c female mice; conditions: result in words; OVA mice
Procedure: According to the method described in Henderson, W. R., et al., Am. J. Respir. Cric. Care Med., 165(1), 108–116 (2002), suppressing action on bronchial inflammation was confirmed. BALB/c female mice (7-week old) were used for the test, each group consisting of 7 mice, and the control group consisting of 11 or 12 mice. The mice were intraperitoneally administered with ovalbumin (OVA, 100 ng, Sigma) and 1 mg of aluminum hydroxide for initial immunization, and after 2 weeks, they are subcutaneously administered with 10 ng of OVA as additional immunization. After further 1 week, a test compound was dissolved in water containing 0.5% carboxymethylcellulose and orally administered (30 mg/kg) to the test animals once a day for 5 days. The control group was similarly given only with water containing 0.5% carboxymethylcellulose. After 1 hour, the mice were orally inhaled with 2% OVA for 10 minutes to induce a respiratory tract inflammation. […] After 24 hours, alveoli in the lungs of the test animals were washed with physiological saline, and the total infiltrated white blood cells (WBC) were counted.

SMILES: c1cc(NC2CCCNC2)c2ccncc2c1 (racemic) [Example 29, 3-N-(5-Isoquinolyl)aminopiperidine hydrochloride]
- constriction of respiratory tract (airway resistance value) [1]: significantly improved the constriction of respiratory tract

SMILES: Cl.NCCCN(CCc1cccs1)S(=O)(=O)c1cccc2cnccc12 [Example 2, N-[(5-Isoquinolyl)sulfonyl]-N-[2-(2-thienyl)ethyl]-1,3-propylenediamine hydrochloride]
- vasoconstriction inhibitory action [2]: significant vasoconstriction inhibitory action
- constriction of respiratory tract (airway resistance value) [1]: significantly improved the constriction of respiratory tract
- IC50 [3]: > 50 µM

SMILES: Cl.Nc1nccc2c(OCC3CCCNC3)cccc12 (centres unmarked) [Example 11, 3-[(1-Amino-5-isoquinolyl)oxy]methylpiperidine hydrochloride]
- constriction of respiratory tract (airway resistance value) [1]: significantly improved the constriction of respiratory tract

SMILES: Cl.NCCN(CCS(=O)(=O)c1ccccc1)S(=O)(=O)c1cccc2c(O)nccc12 [Example 12, N-[(1-Hydroxy-5-isoquinolyl)sulfonyl]-N-[2-(phenylsulfonyl)ethyl]ethylenediamine hydrochloride]
- vasoconstriction inhibitory action [2]: significant vasoconstriction inhibitory action
- constriction of respiratory tract (airway resistance value) [1]: significantly improved the constriction of respiratory tract
- inhibition in vivo at 1 %, 50 µL (intraocular pressure): 13.3%

SMILES: Cl.c1cc(NC2CCNCC2)c2ccncc2c1 [Example 20, 4-(5-Isoquinolyl)aminopiperidine hydrochloride]
- constriction of respiratory tract (airway resistance value) [1]: significantly improved the constriction of respiratory tract
- inhibition in vivo at 1 %, 50 µL (intraocular pressure): 35.7%
- IC50 [3]: > 100 µM

SMILES: Cc1cncc2cccc(NC3CCNCC3)c12.Cl [Example 106, 4-(4-Methyl-5-isoquinolyl)aminopiperidine hydrochloride]
- vasoconstriction inhibitory action [2]: significant vasoconstriction inhibitory action
- constriction of respiratory tract (airway resistance value) [1]: significantly improved the constriction of respiratory tract
- inhibition in vivo at 1 %, 50 µL (intraocular pressure): 31.3%
- infiltrated white blood cell number [4]: decrease of infiltrated white blood cell number
- inhibition of MLCK [3]: did not inhibit MLCK

SMILES: Cl.Clc1cncc2cccc(NC3CCNCC3)c12 [Example 118, 4-(4-Chloro-5-isoquinolyl)aminopiperidine hydrochloride]
- constriction of respiratory tract (airway resistance value) [1]: significantly improved the constriction of respiratory tract
- inhibition in vivo at 1 %, 50 µL (intraocular pressure): 25%

SMILES: Cc1cncc2cccc(N[C@H]3CC[C@H](N)CC3)c12.Cl [Example 121, Trans-N-(4-methyl-5-isoquinolyl)-1,4-cyclohexanediamine hydrochloride]
- vasoconstriction inhibitory action [2]: significant vasoconstriction inhibitory action
- constriction of respiratory tract (airway resistance value) [1]: significantly improved the constriction of respiratory tract
- inhibition in vivo at 1 %, 50 µL (intraocular pressure): 31.3%

SMILES: Cl.N[C@H]1CC[C@H](Oc2cccc3cncc(Br)c23)CC1 [Example 133, Trans-4-[(4-bromo-5-isoquinolyl)oxy]cyclohexylamine hydrochloride]
- constriction of respiratory tract (airway resistance value) [1]: significantly improved the constriction of respiratory tract
- intraocular pressure reducing activity (intraocular pressure): significant intraocular pressure reducing activity

SMILES: Cc1cncc2cccc(O[C@H]3CC[C@H](N)CC3)c12.Cl [Example 140, Trans-4-[(4-methyl-5-isoquinolyl)oxy]cyclohexylamine hydrochloride]
- vasoconstriction inhibitory action [2]: significant vasoconstriction inhibitory action
- constriction of respiratory tract (airway resistance value) [1]: significantly improved the constriction of respiratory tract
- intraocular pressure reducing activity (intraocular pressure): significant intraocular pressure reducing activity

SMILES: Cl.OCCN1CCC(Nc2cccc3cnccc23)CC1 [Example 144, 1-(2-Hydroxyethyl)-4-(5-isoquinolyl)aminopiperidine hydrochloride]
- constriction of respiratory tract (airway resistance value) [1]: significantly improved the constriction of respiratory tract
- intraocular pressure reducing activity (intraocular pressure): significant intraocular pressure reducing activity
- inhibition of MLCK [3]: did not inhibit MLCK

SMILES: Cc1cncc2cccc(NC3CCN(CCO)CC3)c12.Cl [Example 146, 1-(2-Hydroxyethyl)-4-(4-methyl-5-isoquinolyl)aminopiperidine hydrochloride]
- vasoconstriction inhibitory action [2]: significant vasoconstriction inhibitory action
- constriction of respiratory tract (airway resistance value) [1]: significantly improved the constriction of respiratory tract
- intraocular pressure reducing activity (intraocular pressure): significant intraocular pressure reducing activity
